Data from patent US20110257251A1, “TELOMERASE INHIBITORS AND METHODS OF USE THEREOF” (PRESIDENTS AND FELLOWS OF HARVARD COLLEGE, priority 2008, published 2011).
Like-named read-outs stand apart in the source and are kept apart here. Strand notation (5' to 3'): a small letter for the sugar, then the base; units joined by * are phosphorothioate-linked, units joined directly phosphodiester-linked; [ ] holds rarer units or linkages, { } end groups; capitals alone tell only the bases. m = 2'-O-methyl

Legend:
mutated full length hTR = test: Fluorescence polarization compensatory mutation study with mutated full-length hTR; format: binding, human; settings: mutant RIPtide and mutant hTR
Source text: Without wishing to be limited or constrained by theory, the RIPtide binding sites on hTR had been inferred assuming Watson-Crick complementarity between the RIPtide and target. To verify experimentally that the RIPtides were actually recognizing the predicted regions on hTR, tandem point mutations were introduced into the central portion of the RIPtides and compensatory sequence changes into hTR. The binding behavior of the “wild type” and “mutant” RIPtides to wild-type and compensatory mutant hTR targets was analyzed by FP (FIG. 7). Four different hTR transcripts were generated in which two consecutive nucleotides at the central position of each cluster, the expected target site (FIG. 6A, bases indicated in bold), were mutated to their Watson-Crick complementary bases (G→C, C→G and U→A). […] Similarly, binding was abolished or reduced when mutated RIPtides were incubated with wild-type hTR (FIG. 7C). […] Perhaps this lack of restoration in certain cases reflects a local change in the availability or in the folding energy of the single-stranded elements as a result of the mutation. Taken together, this mutational specificity supports the notion, without wishing to be bound by theory, that the RIPtides indeed target telomerase at the corresponding sequence-complementary sites.
For mapping of hTR-RIPtide binding sites, site-directed mutagenesis on the pRc/CMV plasmid (Collins lab, UC Berkeley) was performed using a QuickChange-XL mutagenesis kit (Stratagene) and confirmed by sequencing. Full-length hTR transcripts incorporating two consecutive base mutations (to their Watson-Crick complementary bases) were generated for fluorescence polarization studies.

full-length hTR = test: Fluorescence polarization binding to full-length hTR; parameters: species or system human; settings: for affinity for full-length hTR (in words): FP; for Kd: full-length hTR construct, SEQ ID NO: 1 variants, read-out: Kp from FP
Source text: To assess and quantify the ability of the RIPtide hits from microarray screening to bind the target RNA in solution, a panel of RIPtides representing variations on the consensus sequences of top hits within each cluster was selected. These RIPtides were synthesized with a 3-carboxyfluorescein (FAM) label attached to the 3′-end, the same as had been attached to the surface of the microarray. Fluorescence polarization (FP) was then used to measure quantitatively the equilibrium dissociation constant (Kd) values of the FAM-labeled RIPtides, using the same folded target RNAs and buffer system as had been employed in the microarray screen.
It is possible, without wishing to be limited by a theory, that RIPtide binding sites present or available in truncated forms of hTR may not be present or available in full-length hTR. Five RIPtides were therefore selected that had been validated for binding PKWT-1 in solution, and their binding affinity to full-length hTR was measured using FP. […] Were the J2b/3 loop involved in tertiary interactions in hTR, RIPtide binding might have been lost, and therefore it was surmised that the loop remains relatively unengaged in such interactions when present in naked hTR.
The remainder of the RIPtide hits from primary microarray screens of PK123 and PK159 in solution were not validated, but instead validation using full-length hTR was analyzed. Representative examples from each of the clusters were selected (FIG. 4D) and the binding affinity of these RIPtides for full-length hTR was quantified (FIG. 6A). In this way, RIPtides from clusters III, IV and V that bind full-length hTR were identified. Taken together, the collection of hTR-validated RIPtides maps out a series of sites on the template/pseudoknot that are especially conducive to targeting by a 2′-O-methyl polyribonucleotide; with each site corresponding to a cluster of sequence-complementary RIPtides (FIG. 6B, shaded according to sequence in FIG. 6A). Specifically, these hyper-targetable regions are the J2b/3 loop and P3 stem (Cluster II), the J2a/2b bulge through part of the P2a stem (Cluster III), the J2a/3 loop (Cluster IV), and the Template region (Cluster V).
FAM (6-carboxyfluorescein)-labeled oligonucleotides were synthesized on a 3′-(6-Fluorescein) CPG support (Glen Research) using a MerMade 12 (BioAutomation) DNA synthesizer, purified with Poly Pak-II (Glen Research) cartridges, and compositionally verified by MALDI-TOF MS. Unlabeled full length hTR was prepared by in vitro transcription in the presence of T7 RNA polymerase under the conditions described earlier for RIPtide screening, but without aminoallyl-UTP addition. After DNase I treatment and ethanol precipitation, hTR was purified using the RNeasy Midi kit (Qiagen). Unlabeled PKWT and PKWT-1 were purchased from Dharmacon, and were PAGE-purified and desalted. FAM-labeled RIPtides (5 nM) were titrated with increasing concentrations of folded RNA (300 pM-3 μM, typically). Solutions containing RIPtide and RNA were incubated at 37° C. for 2 h, after which fluorescence polarization was recorded at room temperature using a SpectraMax M5 (Molecular Devices) plate reader. Polarization (expressed in millipolarization units) was monitored at […] (cutoff 515 nm). […] Dissociation constants were determined using Kaleidagraph 3.5 (Synergy Software). […]

[1] = test system: telomerase ribonucleoprotein complex; test: TRAP assay in cell extracts (HeLa, DU145, HEK293); format: biochemical, human; settings: for IC50 in TRAP (in words): cell extracts (HeLa, DU145, HEK293)
Source text: Having discovered a panel of RIPtides that bind four different regions on the naked RNA component of telomerase, it was next determined whether these molecules were capable of inhibiting the activity of the telomerase ribonucleoprotein complex in an in vitro setting. The Telomeric Repeat Amplification Protocol (TRAP) assay (Kim, N. W. et al., Science 266, 2011-2015 (1994)) was therefore employed. The TRAP assay is a PCR-based protocol that has found widespread use in determining telomerase activity in human cell extracts and also in evaluating the in vitro potency of telomerase inhibitors. Using a version of the TRAP assay (Cy5-TRAP) that utilizes fluorescence detection (Herbert, B.-S. et al., Nat. Protocols 1, 1583-1590 (2006)). IC50 values for several RIPtides were determined using cell extracts from two human tumor cell lines (HeLa and DU145) and an immortalized embryonic cell line (HEK293). Initially, a small library of RIPtides representing several clusters identified in the microarray screen was screened and validated by FP experiments on hTR, using telomerase activity present in HeLa cell extracts. The majority of these were 8-mers, but some 7-mers and 6-mers were also tested; all were fully complementary to the target hTR sequence with Kd's for hTR below 300 nM. Several phosphorothioate variations of the initial library were additionally tested, incorporating phosphorothioate linkages either at the two terminal positions of the RIPtide or at every position.
Inhibition of telomerase activity in vitro was determined using TRAP, a PCR-based assay for telomerase activity in cell extracts (B.-S. Herbert, Nat. Protocols, 1, 1583-1590 (2006)). Unlabeled oligonucleotide sequences found to bind by FP were pre-incubated with cell extracts (HeLa, DU 145, and 293), and activity was measured by TRAP.
RIPtides were synthesized, purified with PolyPak-II C18 reverse phase cartridges, and constitutionally verified by MALDI-TOF MS. Telomerase-positive cells were either purchased from ATCC (DU145 and HEK293) or provided in the Chemicon TRAP kit (HeLa). Cell extracts were prepared from cell pellets by detergent lysis with 1×CHAPS lysis buffer (Chemicon). RIPtides were incubated with cell extract for 1 h at 37° C. prior to the TRAP assays. Assays were performed following a protocol that uses fluorescence as a quantitation system, as previously described by Herbert et al. (Nat. Protocols 1, 1583-1590 (2006)). Briefly, extension of a fluorescent artificial substrate by telomerase was carried out for 30 minutes at 30° C., followed by amplification with 30 PCR cycles ([…] 30 s, 59° C. 30 s, 72° C. 1 min). Telomerase extension products were separated on 10% native PAGE gels, and bands were visualized by fluorescence imaging and quantified using ImageQuant™ (GE Healthcare). Concentrations of RIPtides ranged from 0.6 nM to 60 μM, and for the initial screening, experiments were performed in duplicate using HeLa cell extracts. For active RIPtides, experiments were repeated using DU145 (prostate cancer) and HEK293 cell extracts. Several controls were included in the design of the experiments: a positive control (untreated cell lysate), negative controls (buffer only, heat inactivated and RNase treated cell extracts), and PCR amplification control (60 μM of RIPtide added after telomerase elongation and before PCR step). For cell-based TRAP assays, DU145 cells were transfected with 0.2% Lipofectamine™ 2000 (Invitrogen) and 165 nM RIPtide for a period of 24 h. Cells were harvested, counted, lysed with 1×CHAPS lysis buffer and normalized by total protein concentration as determined by the Bradford assay. Assays were performed in triplicate as described above.
The inhibitory potential of the RIPtides was initially assessed in HeLa cell extracts, in duplicate experiments, using a 600 pM-60 μM concentration range. Experiments with selected RIPtides were repeated for a concentration range of 0.6 pM-60 μM. […]

[2] = test system: telomerase activity in DU145 cells; test: Cell-based TRAP assay in transfected DU145 cells; parameters: species or system human; settings: 165 nM RIPtide, 24 h, Lipofectamine 2000, then TRAP
Method: Having established that the modified RIPtides retain activity in vitro, several of these were tested in cell-based assays. DU145 prostate cancer cells were treated with 165 nM RIPtide for 24 h. The cells were subsequently lysed and telomerase activity was assessed by the TRAP assay (FIG. 8D). As a positive control, a previously reported 13-mer 2′-O-methyl oligonucleotide targeting the template region of hTR was employed (Pitts, A. E., Corey, D. R., Proc. Natl. Acad. Sci. USA 95, 11549-111554 (1998)). Lipofectamine™ was used to ensure optimal delivery, and it remains to be established whether cationic lipid delivery is necessary for 10-mers. In particular, there is evidence that relatively short oligonucleotides containing phosphorothioate linkages targeting telomerase show optimal cellular uptake properties (Chen, Z., et al., J. Med. Chem. 45, 5423-5425 (2002)).
RIPtides were synthesized, purified with PolyPak-II C18 reverse phase cartridges, and constitutionally verified by MALDI-TOF MS. Telomerase-positive cells were either purchased from ATCC (DU145 and HEK293) or provided in the Chemicon TRAP kit (HeLa). Cell extracts were prepared from cell pellets by detergent lysis with 1×CHAPS lysis buffer (Chemicon). RIPtides were incubated with cell extract for 1 h at 37° C. prior to the TRAP assays. Assays were performed following a protocol that uses fluorescence as a quantitation system, as previously described by Herbert et al. (Nat. Protocols 1, 1583-1590 (2006)). Briefly, extension of a fluorescent artificial substrate by telomerase was carried out for 30 minutes at 30° C., followed by amplification with 30 PCR cycles ([…] 30 s, 59° C. 30 s, 72° C. 1 min). Telomerase extension products were separated on 10% native PAGE gels, and bands were visualized by fluorescence imaging and quantified using ImageQuant™ (GE Healthcare). […] Cells were harvested, counted, lysed with 1×CHAPS lysis buffer and normalized by total protein concentration as determined by the Bradford assay. […]

[3] = cell extracts (HeLa, DU 145, and 293), SEQ ID NO: 1 variants, read-out: IC50 from TRAP

GUCAGCGA (all 2'-O-methyl, backbone not given here) [II-2]
restoration of binding with compensatory mutations in both RIPtide and hTR (mutated full length hTR): restoration was observed | affinity for full-length hTR (in words) (full-length hTR): improvement in affinity

CAGCGAGA (all 2'-O-methyl, backbone not given here) [II-1]
restoration of binding with compensatory mutations in both RIPtide and hTR (mutated full length hTR): Restoration was not observed

G*C*C*U*C*C*A*G (mG*mC*mC*mU*mC*mC*mA*mG) [G*C*C*U*C*C*A*G LNA]
IC50 [1, 3]: ~6000 nM

GGUGGAAGGC (as printed in the source, key not given here) [IV-5]
telomerase inhibition in cultured cells [2]: marked inhibition

AGUUAGG (all 2'-O-methyl, backbone not given here) [V-3]
restoration of binding with compensatory mutations in both RIPtide and hTR (mutated full length hTR): restoration was observed

GGUGGAAGGC (as printed in the source, key not given here) [IV-4]
IC50 in TRAP (in words) [1]: low nanomolar range

G*CCUCCA*G (mG*mCmCmUmCmCmA*mG; further chemistry not given here)
Kd (full-length hTR): 37.3 ± 15.2 nM

GGUGCCAGGC (all 2'-O-methyl, backbone not given here; further chemistry not fully specified) [IV-3 mismatch, reference compound]
telomerase inhibition in cultured cells [2]: abolished inhibition

5′-GGUGGAAGGC-3′ (2'-O-methyl sugars, as printed in the source, key not given here) [IV-3]
telomerase inhibition in cultured cells [2]: no significant telomerase inhibition | IC50 in TRAP (in words) [1]: low nanomolar range

GCCUCCA*G (mGmCmCmUmCmCmA*mG)
IC50 [1, 3]: ~16000 nM | Kd (full-length hTR): 8.9 ± 5.6 nM

5′-GCCUCCAG-3′ (chemistry not given here) [SEQ ID NO: 1]
telomerase inhibition in TRAP assays (in words) ([1]; cell extracts): showing inhibition of activity | IC50 in TRAP (in words) [1]: micromolar range | affinity for full-length hTR (in words) (full-length hTR): confirmed

GGUGGAAGGC (as printed in the source, key not given here)
IC50 ([1]; cell extracts, in vitro, read-out: IC50, telomerase inhibition in TRAP): ~1 nM

G*CCUCCAG (mG*mCmCmUmCmCmAmG)
IC50 [1, 3]: ~9000 nM | Kd (full-length hTR): 8.8 ± 2.5 nM
